Data published in a melting point compilation (Tetko et al.; mined from patent text by program, amines drawn as free bases though some values may be those of a salt).

First: Cc1ccc(Oc2ccc(-n3cccc3)cc2)c(O)c1
Second: COc1ccc(-n2c(-c3ccccn3)nc(SC)c(C#N)c2=O)cc1
The melting point of the first is lower: 95 to 96 °C for the first, 246 to 253 °C for the second.

First: COC(=O)C1=C(C)NC(C)=C(C(=O)OCC2(C)OCCO2)C1c1cccc([N+](=O)[O-])c1 (stereo not given)
Second: COC(=O)C1=C(C(OC)OC)NC(C)=C(P2(=O)OCCCO2)C1c1ccccc1[N+](=O)[O-] (stereo not given)
The melting point of the first is lower: 143 °C for the first, 174 to 176 °C for the second.

First: CN1CCC(=C2c3cc(Br)ccc3CC(=O)c3sccc32)CC1
Second: COc1ccc(-n2nc3c(cc2=O)CCSc2sc(Br)cc2-3)cc1
The melting point of the first is higher: 172 to 173 °C for the first, 148 to 150 °C for the second.

`CC(=O)Nc1ccc(-c2cc3[nH]c(=O)[nH]c3nc2C)cc1` and `COc1cc(Cl)ccc1-c1nc2cc3c(cc2[nH]1)C(C)(C)CC(=O)N3` cannot be ordered by melting point: over 300 °C for the first, 300 to 303 °C for the second.

First: O=C(c1ccccc1I)N1CCOCC1
Second: O=CNNc1ccc(NC(=S)N2CCOCC2)cc1
The melting point of the first is lower: 86 to 87 °C for the first, 204 to 206 °C for the second.

First: CCCCOc1ccc(C(=O)Nc2ccc3cc(CN4CCCC4)cnc3c2C)c(F)c1
Second: O=C(O)c1ccccc1OCCN1CCC(c2cn(Cc3ccco3)c3cc(F)ccc23)CC1
The melting point of the first is lower: 138 °C for the first, 174 to 175 °C for the second.

Compared with `CCc1c(N)cccc1NC(=O)OC(C)(C)C`, `CCCN(CCC)C1Cc2c[nH]c3ccc(C(=O)C(C)(C)C)c(c23)C1` (stereo not given) is lower in melting point: 109 to 110 °C for the first, 92 °C for the second.

First: COC(=O)c1nc(-c2cc([N+](=O)[O-])c(Cl)cc2F)cc(N)c1Cl
Second: COC(=O)c1cn(C2CC2)c2cc(F)c(F)cc2c1=O
The melting point of the first is lower: 161 to 163 °C for the first, 223 to 224 °C for the second.

First: CCCn1c(=O)c2c(nc(/C=C/c3cccs3)n2C)n(CCC)c1=O
Second: CC(=O)N1c2c(ccn3c(C)c(C)nc23)[C@@H](O)[C@H](O)[C@H]1c1ccccc1
The melting point of the first is lower: 185 to 186 °C for the first, 260 to 261 °C for the second.

Compared with `Cc1ccnc(CSc2nc3ccccc3c(=O)n2-c2ccccc2)c1`, `O=CNc1c2c(nc3ccccc13)CCc1cnn(-c3ccccc3)c1-2` is higher in melting point: 145 to 150 °C for the first, over 250 °C for the second.

Compared with `Oc1cccc2ccc(C=Cc3ccccc3)nc12`, `CN(C)c1ccc(C=Cc2cc3cc(O)ccc3o2)cc1` is higher in melting point: 70 to 72 °C for the first, 177 to 178 °C for the second.

First: CC#CC(C)n1nnc2cc3c(=O)n(C(C)Cn4ncnn4)nnc3cc2c1=O (stereo not given)
Second: CCCc1nc2c(C)cc(C)nc2n1C1CCc2cc(-c3ccccc3-c3nnn[nH]3)ccc21 (stereo not given)
The melting point of the first is lower: 72 to 74 °C for the first, 173 °C for the second.

First: Clc1ccc(-c2nc(-n3ccnc3)oc2CCC2=NCCO2)cc1
Second: O=C(O)CCCn1c(-c2ccc3c(c2)OCO3)nc2ccccc21
The melting point of the first is lower: 120 to 121 °C for the first, 177 to 180 °C for the second.

First: Cc1ccc(CC2CCN(CCS(=O)c3ccc4[nH]c(=O)oc4c3)CC2)cc1 (stereo not given)
Second: FC(F)(F)c1cccc(N2CCN(Cc3ccc(-c4ccccc4)o3)CC2)c1
The melting point of the first is higher: 177 to 179 °C for the first, 56 °C for the second.

First: NCc1cc(Cl)c(N=C2NCCN2)c(Cl)c1
Second: CN(C)CC#Cc1ccc2c(Nc3ccc(Cl)cc3Cl)c(C#N)cnc2c1
The melting point of the first is higher: 205 to 206 °C for the first, 144 to 145 °C for the second.

First: COC(CNC(=O)N(N=Cc1ccccc1)c1cc(Cl)c(C(C#N)c2ccc(Cl)cc2)c(Cl)c1)OC (stereo not given)
Second: N#CC=Cc1ccc(Cl)cc1C(=O)c1ccccc1
The melting point of the first is higher: 190 to 191 °C for the first, 89 to 91 °C for the second.

Compared with `CC1CCCN(CC(C)N2c3ccccc3Sc3ccc(C(N)=S)cc32)C1` (mixture of isomers), `O=C1c2cccc(O)c2CCC1CN1CCC(O)(c2ccccc2)CC1` (stereo not given) is lower in melting point: 236 °C for the first, 187 to 189 °C for the second.

First: CC(=O)OC1CSC(Oc2cnc(-c3ccncc3)c(F)c2)C(OC(C)=O)C1OC(C)=O (stereo not given)
Second: CC(C)[C@H]1CC[C@H](Nc2ncc(Cc3ccc(O)nc3)c3ncccc23)CC1
The melting point of the first is lower: 165 °C for the first, 232 to 235 °C for the second.

Compared with `O=C1OC2(CCN(C(=O)Nc3cnc(-c4ccc(O)cc4)cn3)CC2)c2ccccc21`, `CNS(=O)(=O)c1ccc(Nc2nc(-c3ccccc3)cc(N3CCC(O)CC3)n2)cc1` is higher in melting point: 263 to 265 °C for the first, 280 to 285 °C for the second.

First: CC[C@@]1(O)C(=O)OCc2c1cc1n(c2=O)Cc2c-1nc1ccc(Cl)c3c1c2C(NC(C)=O)CN3 (stereo not given in full)
Second: Cc1noc(NS(=O)(=O)c2ccccc2-c2ccc(-c3ncco3)cc2CN(C)C(=O)c2ccc(F)c(F)c2)c1C
The melting point of the first is higher: 250 to 270 °C for the first, 122 to 128 °C for the second.

First: CC(C(=O)O)=C1c2ccccc2C=Cc2ccccc21
Second: O=C(O)Cc1cc(C(=O)Cc2ccccc2)ccc1O
The melting point of the first is higher: 235 to 236 °C for the first, 198 °C for the second.

Compared with `O[C@H]1CC[C@H](Nc2nccc(-c3c[nH]c4ccccc34)n2)CC1`, `O=[N+]([O-])c1cnn2c(-c3ccccc3C(F)(F)F)ccnc12` is lower in melting point: 258 to 260 °C for the first, 195 to 197 °C for the second.

Compared with `N#Cc1cccc(Cn2cnc(C(N)=O)c2N)c1`, `Nc1cccc(C(=O)Nc2nccn(-c3ccccc3)c2=O)c1` is higher in melting point: 246 to 247 °C for the first, over 250 °C for the second.

First: CC(C)[C@H](NC(=O)N(C)Cc1nc2ccccc2[nH]1)C(=O)N[C@@H](Cc1ccccc1)[C@@H](O)C[C@H](Cc1ccccc1)NC(=O)OCc1cccnc1
Second: CC(C)C(C)C(=O)NC(C)(Cc1c[nH]c2ccccc12)C(=O)NCCc1ccccc1 (stereo not given)
The melting point of the first is higher: 110 to 114 °C for the first, 104 to 109 °C for the second.

First: COc1ccc2nc(NC(=O)C(CC3CCCC3)c3ccc(S(=O)(=O)N(C)C)cc3)sc2n1 (stereo not given)
Second: CS(=O)CC(=NC1CCCCC1)c1cc2ccccc2cc1O (stereo not given)
The melting point of the first is higher: 229 to 234 °C for the first, 132 to 136 °C for the second.

First: O=C(O)c1cc(C(F)(F)F)cc([N+](=O)[O-])c1Cl
Second: COCCOc1c(S(C)(=O)=O)ccc(C(=O)O)c1Cl
The melting point of the first is higher: 173 °C for the first, 89 to 92 °C for the second.

Compared with `O=C(O)c1cn(C2CC2)c2cc(N3CC(O)C3)c(F)cc2c1=O`, `O=C(O)N1CCN(C(=O)c2cccs2)CC1` is lower in melting point: 296 to 298 °C for the first, 76 °C for the second.

First: CC(C)(C)OC(=O)C1CCCN(CO)c2c1cc(OCc1ccccc1)c1ccccc21 (stereo not given)
Second: O=C(Nc1ccc(C(F)(F)F)cc1)N1CCC(c2ccccc2)C(c2ccccc2)=N1 (stereo not given)
The melting point of the first is lower: 108 to 110 °C for the first, 171 to 173 °C for the second.

First: Cc1nsc2ccc([N+](=O)[O-])cc12
Second: Nc1nc2c(s1)CCN(CC=Cc1ccccc1[N+](=O)[O-])CC2
The melting point of the first is lower: 124 to 125 °C for the first, 125 to 128 °C for the second.

First: Cn1cncc1C(O)(c1ccc(Cl)cc1)c1ccc2[nH]c(=O)cc(-c3cccnc3)c2c1 (stereo not given)
Second: Cc1ccc(C(N)(c2ccc3c(c2)C(c2cccc(Cl)c2)Nc2nnnn2-3)c2cncn2C)cc1 (stereo not given)
The melting point of the first is higher: over 250 °C for the first, 140 °C for the second.

First: CCCCCCCCCC(CC)SCCCCCCCCCCN1C(=O)CCC1=O (stereo not given)
Second: O=C(O)CCCNc1nc2ccccc2c(=O)o1
The melting point of the first is lower: 86 °C for the first, 147 to 148 °C for the second.

Compared with `CN1C[C@H](O)C[C@H]1C(N)=O`, `CC(C)Sc1c(C(N)=O)sc2cccc(Cl)c12` is higher in melting point: 138 to 140 °C for the first, 182 to 184 °C for the second.

First: CS(=O)(=O)c1ccc(-c2cnn(CC(F)(F)F)c(=O)c2Nc2ccc(F)cc2F)cc1
Second: C=CCn1cc(C(O)(c2ccc3c(cnn3C(=O)NCC)c2)C(F)(F)F)c2ccccc21 (stereo not given)
The melting point of the first is higher: 170 to 175 °C for the first, 162 to 164 °C for the second.

Compared with `N[C@@H](CSCc1ccc(C(=O)O)cc1)C(=O)O`, `CC(C)c1ccc2c(c1)c(SC(C)(C)C)c(CC(C)(C)C(=O)O)n2Cc1ccc(Cl)cc1` is lower in melting point: over 260 °C for the first, 189 to 192 °C for the second.

First: CC(C)c1cnc(NC(=O)Cc2csc(N)n2)s1
Second: NOCC(O)CN1CCOCC1 (stereo not given)
The melting point of the first is higher: 201 to 203 °C for the first, 83 to 85 °C for the second.
